Laboratory results reported in the supplement of paper PMC10307832.

How the values were obtained:
Test in all cases: relative viability (nuclei count vs DMSO), 5 days (fraction); higher = more cells survive
[1] = compound: CCN(CCO)CCCC(C)Nc1ccnc2cc(Cl)ccc12 [Hydroxychloroquine] + CC(C)C[C@H](NC(=O)[C@H](Cc1ccccc1)NC(=O)c1cnccn1)B(O)O [Bortezomib] (partner 0.002 µM)
Outline: (§1)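 Lung cancer cell lines in 1536-well plates were dosed by pin tool the day after seeding, either with one drug alone or with a fixed anchor-drug dose plus five library-drug doses (not always all listed) in √10 steps. After 5 days, cells were fixed and their nuclei stained in one step (final 0.05% Triton X-100, 1% formaldehyde, 1 ug/ml Hoechst), then counted on 4× images. Relative viability is the nuclei count in treated wells divided by that in vehicle wells. Values are medians of duplicate plates.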

[2] = compound: CCN(CCO)CCCC(C)Nc1ccnc2cc(Cl)ccc12 [Hydroxychloroquine] + CC(=O)Nc1cccc(-n2c(=O)n(C3CC3)c(=O)c3c(Nc4ccc(I)cc4F)n(C)c(=O)c(C)c32)c1 [Trametinib] (partner 0.02 µM)
Outline: as §1

[3] = compound: CCN(CCO)CCCC(C)Nc1ccnc2cc(Cl)ccc12 [Hydroxychloroquine] + O=C(c1cc(Cc2n[nH]c(=O)c3ccccc23)ccc1F)N1CCN(C(=O)C2CC2)CC1 [Olaparib] (partner 8 µM)
Outline: as §1

[4] = compound: CCN(CCO)CCCC(C)Nc1ccnc2cc(Cl)ccc12 [Hydroxychloroquine] + CS(=O)(=O)N1CCN(Cc2cc3nc(-c4cccc5[nH]ncc45)nc(N4CCOCC4)c3s2)CC1 [Pictilisib] (partner 1 µM)
Outline: as §1

Row | Cell Line | relative viability ([1]; first compound 0.5 µM) | relative viability ([1]; first compound 1.581 µM) | relative viability ([1]; first compound 5 µM) | relative viability ([1]; first compound 15.81 µM) | relative viability ([1]; first compound 50 µM) | relative viability ([2]; first compound 0.5 µM) | relative viability ([2]; first compound 1.581 µM) | relative viability ([2]; first compound 5 µM) | relative viability ([2]; first compound 15.81 µM) | relative viability ([2]; first compound 50 µM) | relative viability ([3]; first compound 0.5 µM) | relative viability ([3]; first compound 1.581 µM) | relative viability ([3]; first compound 5 µM) | relative viability ([3]; first compound 15.81 µM) | relative viability ([3]; first compound 50 µM) | relative viability ([4]; first compound 0.5 µM) | relative viability ([4]; first compound 1.581 µM) | relative viability ([4]; first compound 5 µM) | relative viability ([4]; first compound 15.81 µM) | relative viability ([4]; first compound 50 µM)
1 | NCI-H1355 | 1.24 | 1.19 | 1.09 | 1.12 | 1.25 | 0.374 | 0.413 | 0.435 | 0.376 | 0.388 | 0.796 | 0.685 | 0.661 | 0.709 | 0.782 | 0.475 | 0.362 | 0.461 | 0.485 | 0.471
2 | NCI-H1437 | 0.516 | 0.737 | 0.505 | 0.483 | 0.446 | 0.543 | 0.579 | 0.515 | 0.459 | 0.544 | 0.604 | 0.665 | 0.65 | 0.653 | 0.652 | 0.341 | 0.49 | 0.412 | 0.421 | 0.439
3 | NCI-H1650 | 0.203 | 0.221 | 0.218 | 0.227 | 0.219 | 0.556 | 0.681 | 0.515 | 0.591 | 0.494 | 0.804 | 0.781 | 0.788 | 0.881 | 0.917 | 0.558 | 0.578 | 0.49 | 0.542 | 0.599
4 | NCI-H1651 | 0.947 | 0.932 | 0.866 | 0.982 | 0.943 | 0.832 | 0.894 | 0.834 | 0.864 | 0.879 | 0.178 | 0.193 | 0.191 | 0.18 | 0.197 | 0.6 | 0.663 | 0.561 | 0.574 | 0.592
5 | NCI-H1666 | 0.907 | 0.658 | 0.652 | 0.714 | 0.772 | 0.789 | 0.786 | 0.848 | 0.812 | 0.794 | 0.669 | 0.727 | 0.719 | 0.749 | 0.693 | 0.519 | 0.409 | 0.377 | 0.477 | 0.402
6 | NCI-H1734 | 0.98 | 0.918 | 1.03 | 0.918 | 1.01 | 0.639 | 0.604 | 0.645 | 0.668 | 0.699 | 0.525 | 0.601 | 0.626 | 0.616 | 0.635 | 0.507 | 0.294 | 0.462 | 0.491 | 0.47
7 | NCI-H1755 | 0.955 | 0.868 | 0.918 | 0.927 | 0.953 | 0.743 | 0.729 | 0.776 | 0.726 | 0.732 | 0.861 | 0.841 | 0.841 | 0.912 | 0.827 | 0.431 | 0.273 | 0.374 | 0.425 | 0.379
